Assay results from US4661499A, “2-[(substituted)-phenoxymethyl]quinolines” (Merck Frosst Canada, Inc., priority 1985, dated 1987).

System: LTB4 formation
Assay: Rat Peritoneal Polymorphonuclear (PMN) Leukocyte Assay (leukotriene inhibitor assay)
Assay type: cell-based
Conditions: A-23187 10 μM
Method: For example, 2-[4-(1-hydroxyhexylphenoxymethyl)]quinoline (see Example 1) was compared to its 3-(1-hydroxyhexylphenoxymethyl) analog in the PMN (leukotriene inhibitor) assay.
Rats under ether anesthesia are injected (i.p.) with 8 ml of a suspension of sodium cascinate (6 grams in ca. 50 ml water). After 15-24 hr. the rats are sacrificed (CO2) and the cells from the peritoneal cavity are recovered by lavage with 20 ml of buffer (Eagles MEM containing 30 mM HEPES adjusted to pH 7.4 with NaOH). The cells are pelleted (350×g, 5 min.), resuspended in buffer with vigorous shaking, filtered, through lens paper, recentrifuged and finally suspended in buffer at a concentration of […]. A 500 μl aliquot of PMN suspension and test compound are preincubated for 2 minutes at 37° C., followed by the addition of 10 μM A-23187. The suspension is stirred for an additional 4 minutes then bioassayed for […] content by adding an aliquot to a second 500 μl portion of the PMN at 37° C. The LTB4 produced in the first incubation causes aggregation of the second PMN, which is measured as a change in light transmission. The size of the assay aliquot is chosen to give a submaximal transmission change (usually -70%) for the untreated control. The percentage inhibition of LTB4 formation is calculated from the ratio of transmission change in the sample to the transmission change in the compound-free control.

Compound: CCCCCC(O)c1ccc(OCc2ccc3ccccc3n2)cc1 (centres unmarked) [Example 1]
- % Inhibition of LTB4 formation (0.0016 μg/ml): 15%
- % Inhibition of LTB4 formation (0.008 μg/ml): 49%
- % Inhibition of LTB4 formation (0.04 μg/ml): 89%
- % Inhibition of LTB4 formation (0.2 μg/ml): 100%
- % Inhibition of LTB4 formation (1 μg/ml): 100%
- % Inhibition of LTB4 formation (5 μg/ml): 100%

Compound: CCCCCC(O)c1cccc(OCc2ccc3ccccc3n2)c1 (centres unmarked) [Example 3-Analog, reference compound]
- % Inhibition of LTB4 formation (0.008 μg/ml): -1%
- % Inhibition of LTB4 formation (0.04 μg/ml): 39%
- % Inhibition of LTB4 formation (0.2 μg/ml): 100%
- % Inhibition of LTB4 formation (1 μg/ml): 100%
- % Inhibition of LTB4 formation (5 μg/ml): 100%
